{"source": "patent US8093288B2", "about": "“Genipin derivatives and uses thereof” (Beth Israel Deaconess Medical Center, priority 2003, dated 2012)", "key": {"[1]": {"test_system": "pancreatic islets from UCP2 knockout mice", "test": "Insulin secretion in isolated pancreatic islets from UCP2 knockout mice", "type": "cell-based", "conditions": "5.5 mM glucose, 50 nM, 0.5 μM and 5 μM genipin, 37° C. for 60 min, FIG. 4 / FIG. 11B", "method": "As used or herein, pancreatic islets from wildtype and UCP2 knockout mice were isolated according to a method used for rats (Cawthorn and Chan, Mol. Cell. Endocrinol. 1991, 75:197-204, the entire teachings of which are incorporated herein by reference), except that the total exposure to type XI collagenase (Worthington Biochemical Co., NJ) was 30 min. and the Ficoll gradient was altered to layers of 25%, 23%, 21%, and 11%. Islets were harvested from the 11%-21% interface.\nIslets were cultured in RPMI medium containing 11.0 mM glucose and supplemented with 1% penicillin-streptomycin. 7.5% fetal bovine serum (all from Gibco/BRL, Burlington, ON), and 10 mM Hepes (Sigma). After culturing for 20-24 hr, the islets were transferred to microcentrifuge tubes, pelleted (800 g for 5 min), and the medium aspirated and replaced with 1.0 mL DME medium containing 1% gelatin and 5.5 mM glucose with no genipin (control), 50 nM genipin, 0.5 μM genipin, and 5 μM genipin. For insulin secretion studies, the three islets were incubated per tube. After incubation at 37° C. for 60 min., the islets were centrifuged. The supernatant was collected and stored at −80° C., and then later assayed for insulin using Rat Insulin ELISA Kit (Cat. No. INSKR020, Crystal Chem., Inc., Chicago, Ill.).\nFIGS. 11B and 11C show their effects on insulin secretion. Pancreatic islets were isolated from WT or UCP2 knockout (KO) mice. […]"}, "[2]": {"test_system": "high fat diet-fed wildtype mice", "test": "Blood glucose and insulin after genipin injection in high fat diet-fed wildtype mice", "type": "in vivo", "conditions": "high fat diet 24 weeks, 20 hours fasting, 300 μg genipin injected, thirty minutes after injection", "method": "(§1) Wildtype and UCP2 knockout mice were placed on a high fat diet obtained from Research Diets Inc., New Brunswick, N.J. (cat. no. D12331, HFD). The fat source was coconut oil and comprised 58% of the total calories. The mice remained on the high fat diet for 24 weeks. After the 24 weeks, both the wildtype and the UCP2 knockout mice were obese (about 50-60 g). After 20 hours of fasting, the blood glucose and insulin levels of the mice were measured, then the mice were injected with 300 μg of genipin. Thirty minutes after injection the blood glucose and insulin levels of the mice were measured again. Blood glucose levels were assessed using a glucometer (One touch, Lifescan, Milpitas, Calif.). Serum insulin concentrations were assessed using mouse insulin as a standard (Rat Insulin ELISA Kit. cat. #INSKR020 Crystal Chem. Inc., Chicago, Ill.). […] A comparison of the effect of genipin on the blood glucose levels and insulin levels in wildtype and UCP2 knockout mice can be seen in FIGS. 7 and 10, respectively."}, "[3]": {"test_system": "high fat diet-fed UCP2 knockout mice", "test": "Blood glucose and insulin after genipin injection in high fat diet-fed UCP2 knockout mice", "type": "in vivo", "conditions": "high fat diet 24 weeks, 20 hours fasting, 300 μg genipin injected, thirty minutes after injection", "method": "as §1"}, "[4]": {"test_system": "WT islets", "test": "Glucose-stimulated insulin secretion in WT islets after chronic hyperglycemia", "type": "cell-based, mice", "conditions": "WT islets after 72 hours at 25 mM glucose; 5 μM genipin acutely added; 5.5, 12.5, 25 mM glucose; FIG. 12A", "method": "(§2) Pancreatic islets were isolated from WT (FIG. 12A) or UCP2 KO mice (FIG. 12B) and subjected to chronic incubations at low (5.5 mM) and high glucose (25 mM). In a separate experiment, islets were isolated from ob/ob mice (FIG. 12C). Islets were incubated for a total of 72 hours and washed, and then insulin-secretion studies were performed using three different concentrations of glucose (5.5, 12.5, and 25 mM) with or without 5 μM genipin. Results are means±SEM of four independent experiments (FIGS. 12A and 12B) or eight to twenty repeats of one representative experiment (FIG. 12C). WT islets that were chronically incubated at low glucose released increasing amounts of insulin in response to increasing concentrations of glucose (FIG. 12A, left panel). Following chronic hyperglycemia, islets increased basal insulin release, but were completely unresponsive to glucose stimulation (FIG. 12A, middle panel). […] To assess the role of genipin in hyperglycemia-induced loss of glucose responsiveness, genipin was acutely added into islets during the insulin-release phase of the study."}, "[5]": {"test_system": "ob/ob islets", "test": "Glucose-stimulated insulin secretion in islets from ob/ob mice", "type": "cell-based", "conditions": "5 μM genipin acutely added, FIG. 12C", "method": "as §2, with “study. […] Insulin secretion in islets from ob/ob mice and ob/ob mice lacking UCP2 with or without genipin was also studied. It has been reported that in ob/ob islets, UCP2 expression levels are increased compared to WT islets. […]” for “study.”"}}, "note": "“Also recorded” adds a separate entry of the source."}
{"smiles": "COC(=O)C1=CO[C@@H](O)[C@@H]2C(CO)=CC[C@H]12", "note": "[genipin]", "values": [{"measurement": "insulin secretion", "setting": "[1]", "result": "does not increase insulin secretion; also recorded: no effect on insulin secretion"}, {"measurement": "blood glucose levels", "setting": "[2]; FIG. 5", "result": "significantly lowered blood glucose"}, {"measurement": "blood insulin levels", "setting": "[2]; FIG. 8", "result": "dramatically increase the blood insulin levels"}, {"measurement": "blood glucose levels", "setting": "[3]; FIG. 6", "result": "little effect"}, {"measurement": "insulin levels", "setting": "[3]; FIG. 9", "result": "little effect"}, {"measurement": "glucose-stimulated insulin secretion (GSIS)", "setting": "[4]", "result": "prevented the hyperglycemia-induced block in GSIS"}, {"measurement": "glucose sensing (glucose-stimulated insulin secretion)", "setting": "[5]", "result": "restored glucose sensing"}]}
